# Assay results published in patent publication US7217802B2, “Method and kit for detecting, or determining, 3,4-methylenedioxymethamphetamine” (Randox Laboratories Limited, priority 2001, dated 2007).
# Like-named read-outs stand apart in the source and are kept apart here.
# What was measured:
# Cedia DAU = details: cited from earlier work
# Emit II Plus Monoclonal = details: cited from earlier work
# [1] = tested on: antiserum raised to immunogen 7 (IgG fraction); assay: MDMA competitive ELISA (microtiter plate); format: binding, sheep; details: for IC50 / % CR (cross-reactivity = IC50MDMA/IC50CR x 100): Hapten 7-HRP; for % CR (cross-reactivity = IC50MDMA/IC50CR x 100): relative to MDMA 100; for level of cross-reactivity of the MDMA assays (in words): summary of Table 2
# Method: An aqueous solution of the immunogen prepared in Example 8 was formulated with Freund's Complete Adjuvant (FCA) to form an emulsion consisting of 2 mg/ml immunogen in 50% (v/v) FCA. Two sheep were immunised with this emulsion, 0.25 ml being subcutaneously injected at each of 4 sites in the flank of each animal. Subsequent immunisations (boosts) contained 1 mg/ml immunogen emulsified in 50% (v/v) Freund's Incomplete Adjuvant (FIA) and were administered in the same manner at monthly intervals for 1 year. Blood sampling took place 7 to 14 days after each boost. Each sample was processed to produce antiserum that was further purified by caprylic acid and ammonium sulfate precipitation to yield an immunoglobulin G (IgG) fraction. The IgG fraction was evaluated by competitive microtiter plate assay, as described below.
# The wells of an enhanced binding 96 well polystyrene microtiter plate were coated with the IgG fraction of the antiserum raised to Immunogen 7 (Example 8), diluted in 10 mM Tris, pH8.5 (125 μl/well). The appropriate antibody coating dilution was determined using standard ELISA chequerboard techniques. The plate was incubated for 2 hours at 37° C., washed 4 times with Tris buffered saline containing Tween 20 (TBST) and tapped dry. Standard solutions of MDMA were prepared in TBST at 0, 1, 10, 50, 100, 250, 500 and 1000 ng/ml and 25 μl of each was added to the appropriate wells (FIG. 2). Conjugates (detection reagents)-hapten 7-HRP (Example 9) and hapten 10-HRP (Example 12)—were diluted in Tris buffer, pH7.2, containing EDTA, D-mannitol, sucrose, thimerosal and BSA, appropriate dilutions being determined by standard ELISA chequerboard techniques, and 100 μl of each was added to the appropriate wells (FIG. 2). The plate was incubated at 37° C. for 2 hours. Excess unbound conjugate was removed by washing 6 times over a 10 minute period with TBST.
# 125 μl of tetramethylbenzidine (TMB) substrate solution was added to each well of the plate which was then incubated for 15 to 20 minutes in the dark at room temperature. The reaction was terminated by addition of 125 μl 0.2 M H2SO4 to each well. The absorbance was then measured at 450 nm using a microtiter plate reader.
# In order to determine the specificity of the MDMA competitive ELISAs, standard solutions of potential cross-reactants MDEA, MDA, d-amphetamine, (+)-methamphetamine, (+)-ephedrine, (−)-ephedrine, (+)-pseudoephedrine, (−)-pseudoephedrine and 1-amphetamine were prepared in TBST at 0, 500, 1000, 5000, 10000, 25000, 50000 and 100000 ng/ml. Employing each series of standards in the MDMA competitive ELISAs, calibration curves were generated and these were used to determine the cross-reactivity of the immunoassays with these drugs. The results of this study are presented in Table 2, cross-reactivity being calculated according to the following formula: % CR=IC50MDMA/IC50CR×100
# Where % CR is the percentage cross-reactivity, IC50MDMA is the concentration of MDMA that causes 50% displacement of signal and IC50CR is the concentration of potential cross-reactant, for which % CR is being evaluated, that causes 50% displacement of signal.
# [2] = tested on: Cozart methamphetamine EIA; details: cited from earlier work; for cross-reactivity, Cozart Methamphetamine: recalculated relative to 100% for MDMA; for cross-reactivity, Cozart methamphetamine EIA: compared to 100% for methamphetamine
# Cozart Amphetamine = details: recalculated relative to 100% for MDMA; cited from earlier work
# [3] = tested on: Cozart Methamphetamine and MDMA; details: cited from earlier work; for cross-reactivity, Cozart Methamphetamine and MDMA: recalculated relative to 100% for MDMA
# Cozart MDMA EIA = details: cited from earlier work; for cross-reactivity, Cozart MDMA: recalculated relative to 100% for MDMA; for cross-reactivity, Cozart MDMA EIA: compared to 100% for MDMA
# [4] = in vivo; cited from earlier work
# [5] = recalculated relative to 100% for MDMA
molecule,measurement,setting,value
"CC(N)Cc1ccccc1 (racemic) [D,L-Amphetamine]","cross-reactivity, CEDIA",Cedia DAU; [5],84.1%
same,"cross-reactivity, Emit",Emit II Plus Monoclonal; [5],545.6%
"CN[C@@H](C)Cc1ccccc1 (racemic) [D,L-Methamphetamine]","cross-reactivity, CEDIA",Cedia DAU; [5],94.25%
same,"cross-reactivity, Emit",Emit II Plus Monoclonal; [5],699.7%
CN[C@H](C)[C@@H](O)c1ccccc1 [(+)-Ephedrine],IC50,[1]; Trial 1,>100 µg/mL
same,% CR (cross-reactivity = IC50MDMA/IC50CR x 100),[1]; Trial 1,<0.017%
CN[C@@H](C)[C@H](O)c1ccccc1 [(−)-Ephedrine],IC50,[1]; Trial 1,>100 µg/mL
same,% CR (cross-reactivity = IC50MDMA/IC50CR x 100),[1]; Trial 1,<0.017%
C[C@H](N)Cc1ccccc1 [D-Amphetamine],"cross-reactivity, CEDIA",Cedia DAU; [5],146.5%
same,IC50,[1]; Trial 1,52.199 µg/mL
same,% CR (cross-reactivity = IC50MDMA/IC50CR x 100),[1]; Trial 1,0.03%
same,level of cross-reactivity of the MDMA assays (in words),[1],very low levels of cross-reactivity
same,"cross-reactivity, Cozart Methamphetamine",[2],1%
same,"cross-reactivity, Emit",Emit II Plus Monoclonal; [5],917%
same,"cross-reactivity, Cozart Amphetamine",Cozart Amphetamine,"1,428%"
same,"cross-reactivity, Cozart Methamphetamine and MDMA",[3],1.52%
same,"cross-reactivity, Cozart MDMA",Cozart MDMA EIA,0.2–0.43%
CN[C@@H](C)Cc1ccccc1 [D-Methamphetamine],"cross-reactivity, CEDIA",Cedia DAU; [5],145%
same,IC50,[1]; Trial 1,11.138 µg/mL
same,% CR (cross-reactivity = IC50MDMA/IC50CR x 100),[1]; Trial 1,0.15%
same,level of cross-reactivity of the MDMA assays (in words),[1],very low levels of cross-reactivity
same,"cross-reactivity, Cozart Methamphetamine",[2],10%
same,"cross-reactivity, Cozart Methamphetamine and MDMA",[3],217%
same,"cross-reactivity, Cozart MDMA EIA",Cozart MDMA EIA,52–80%
same,"cross-reactivity, Cozart MDMA",Cozart MDMA EIA,52–80%
C[C@@H](N)Cc1ccccc1 [L-Amphetamine],"cross-reactivity, CEDIA",Cedia DAU; [5],4.35%
same,IC50,[1]; Trial 2,>30 µg/mL
same,% CR (cross-reactivity = IC50MDMA/IC50CR x 100),[1]; Trial 2,<0.1%
same,"cross-reactivity, Emit",Emit II Plus Monoclonal; [5],120.13%
CN[C@H](C)Cc1ccccc1 [L-Methamphetamine],"cross-reactivity, CEDIA",Cedia DAU; [5],17.4%
same,"cross-reactivity, Emit",Emit II Plus Monoclonal; [5],378.7%
same,"cross-reactivity, Cozart MDMA",Cozart MDMA EIA,4–22%
"CCC(Cc1ccc2c(c1)OCO2)NC (centres unmarked) [MBDB, N-methyl-1-(3,4-methylenedioxyphenyl)-2-butamine]","cross-reactivity, Cozart methamphetamine EIA",[2],150–200%
same,"cross-reactivity, Cozart Methamphetamine",[2],15–20%
same,"cross-reactivity, Cozart Methamphetamine and MDMA",[3],319–334.2%
same,"cross-reactivity, Cozart MDMA EIA",Cozart MDMA EIA,10.4–20%
same,"cross-reactivity, Cozart MDMA",Cozart MDMA EIA,10.4–20^ %
"CC(N)Cc1ccc2c(c1)OCO2 (centres unmarked) [MDA, 3,4-methylenedioxyamphetamine]","cross-reactivity, CEDIA",Cedia DAU; [5],2.76%
same,IC50,[1]; Trial 1,0.3 µg/mL
same,% CR (cross-reactivity = IC50MDMA/IC50CR x 100),[1]; Trial 1,5.7%
same,level of cross-reactivity of the MDMA assays (in words),[1],lower levels of cross-reactivity
same,"cross-reactivity, Cozart Methamphetamine",[2],0.36%
same,"cross-reactivity, Emit",Emit II Plus Monoclonal; [5],430.1%
same,"cross-reactivity, Cozart Amphetamine",Cozart Amphetamine,208488–304164%
same,"cross-reactivity, Cozart Methamphetamine and MDMA",[3],0.87%
same,"cross-reactivity, Cozart MDMA",Cozart MDMA EIA,0.3–0.74%
"CCNC(C)Cc1ccc2c(c1)OCO2 (centres unmarked) [MDEA, 3,4-methylenedioxyethylamphetamine]",IC50,[1]; Trial 2,0.015 µg/mL
same,% CR (cross-reactivity = IC50MDMA/IC50CR x 100),[1]; Trial 2,200%
same,level of cross-reactivity of the MDMA assays (in words),[1],high levels of cross-reactivity
same,"cross-reactivity, Cozart methamphetamine EIA",[2],50–100%
same,"cross-reactivity, Cozart Methamphetamine",[2],5–10%
same,"cross-reactivity, Cozart Amphetamine",Cozart Amphetamine,228.5%
same,"cross-reactivity, Cozart Methamphetamine and MDMA",[3],10.85%
same,"cross-reactivity, Cozart MDMA",Cozart MDMA EIA,7.0–13.0%
"CNC(C)Cc1ccc2c(c1)OCO2 (centres unmarked) [MDMA, 3,4-methylenedioxymethamphetamine]","cross-reactivity, CEDIA",Cedia DAU; compared to 100% for D-methamphetamine,69%
same,"cross-reactivity, CEDIA",Cedia DAU; [5],100%
same,IC50 (standard concentration which produces 50% B/B0),[1]; Conjugate 7 (hapten 7-HRP),0.017 µg/mL
same,% B/B0,"[1]; Conjugate 7 (hapten 7-HRP), standard concentration 1 ng/ml",83.4%
same,% B/B0,"[1]; Conjugate 7 (hapten 7-HRP), standard concentration 10 ng/ml",58%
same,% B/B0,"[1]; Conjugate 7 (hapten 7-HRP), standard concentration 50 ng/ml",34.7%
same,% B/B0,"[1]; Conjugate 7 (hapten 7-HRP), standard concentration 100 ng/ml",26%
same,% B/B0,"[1]; Conjugate 7 (hapten 7-HRP), standard concentration 250 ng/ml",15.9%
same,% B/B0,"[1]; Conjugate 7 (hapten 7-HRP), standard concentration 500 ng/ml",10.9%
same,% B/B0,"[1]; Conjugate 7 (hapten 7-HRP), standard concentration 1000 ng/ml",7.5%
same,IC50 (standard concentration which produces 50% B/B0),[1]; Conjugate 10 (hapten 10-HRP),0.0236 µg/mL
same,% B/B0,"[1]; Conjugate 10 (hapten 10-HRP), standard concentration 1 ng/ml",86.1%
same,% B/B0,"[1]; Conjugate 10 (hapten 10-HRP), standard concentration 10 ng/ml",59.3%
same,% B/B0,"[1]; Conjugate 10 (hapten 10-HRP), standard concentration 50 ng/ml",34.4%
same,% B/B0,"[1]; Conjugate 10 (hapten 10-HRP), standard concentration 100 ng/ml",28.3%
same,% B/B0,"[1]; Conjugate 10 (hapten 10-HRP), standard concentration 250 ng/ml",19.6%
same,% B/B0,"[1]; Conjugate 10 (hapten 10-HRP), standard concentration 500 ng/ml",14.4%
same,% B/B0,"[1]; Conjugate 10 (hapten 10-HRP), standard concentration 1000 ng/ml",8.97%
same,IC50,[1]; Trial 1,0.017 µg/mL
same,% CR (cross-reactivity = IC50MDMA/IC50CR x 100),[1]; Trial 1,100%
same,IC50,[1]; Trial 2,0.03 µg/mL
same,% CR (cross-reactivity = IC50MDMA/IC50CR x 100),[1]; Trial 2,100%
same,"cross-reactivity, Cozart methamphetamine EIA",[2],758–1250%
same,"cross-reactivity, Cozart Methamphetamine",[2],100%
same,"cross-reactivity, Emit","Emit II Plus Monoclonal; compared to 100% for D,L-methamphetamine",14.3%
same,"cross-reactivity, Emit",Emit II Plus Monoclonal; [5],100%
same,"cross-reactivity, Cozart Amphetamine",Cozart Amphetamine,100%
same,excreted unchanged in urine,[4],65%
same,"cross-reactivity, single Cozart methamphetamine kit",[3]; compared to 100% for methamphetamine,43–49%
same,"cross-reactivity, Cozart Methamphetamine and MDMA",[3],100%
same,"cross-reactivity, Cozart MDMA",Cozart MDMA EIA,100%
(+)-Pseudoephedrine,IC50,[1]; Trial 1,>100 µg/mL
same,% CR (cross-reactivity = IC50MDMA/IC50CR x 100),[1]; Trial 1,<0.017%
(−)-Pseudoephedrine,IC50,[1]; Trial 1,>100 µg/mL
same,% CR (cross-reactivity = IC50MDMA/IC50CR x 100),[1]; Trial 1,<0.017%
